# Data from the OligoGym collection.
# These antisense oligonucleotides have a phosphorothioate backbone; sugars and methylation of C are not fully specified.
# Settings: ASO
# Further: test concentration or dose not given here.
sequence,measurement,value
AAAGAAGGGATAAGCACT,remaining target (mRNA or protein) (fraction of control),0.93
AAAGCCATAGCCAGTTGC,remaining target (mRNA or protein) (fraction of control),≥ 1
AAAGCCGTGGTGAACTGACT,remaining target (mRNA or protein) (fraction of control),0.84
AAATAGGTAGCCAGGTGG,remaining target (mRNA or protein) (fraction of control),0.99
AAATGGCCGTTTTGCTCC,remaining target (mRNA or protein) (fraction of control),≥ 1
AACGTGGTCACTTTATAG,remaining target (mRNA or protein) (fraction of control),0.73
AACTGAAATAACAACTTA,remaining target (mRNA or protein) (fraction of control),0.94
AAGACAATGTGGAATCGG,remaining target (mRNA or protein) (fraction of control),≥ 1
AAGGTGCTCTTCCCGCTC,remaining target (mRNA or protein) (fraction of control),0.29
AAGGTTAAGATGCAGCAT,remaining target (mRNA or protein) (fraction of control),0.55
AAGTCCAAGACAGAATCTGT,remaining target (mRNA or protein) (fraction of control),0.46
AATCTTTAATTTCAGCCC,remaining target (mRNA or protein) (fraction of control),≥ 1
AATTCTGCCAGGTTGCTG,remaining target (mRNA or protein) (fraction of control),≥ 1
ACAGATCCAGTGGCTTGT,remaining target (mRNA or protein) (fraction of control),≥ 1
ACAGTGTTTTCCGCGGT,remaining target (mRNA or protein) (fraction of control),0.53
ACATTGAGGGAGTCGTTG,remaining target (mRNA or protein) (fraction of control),≥ 1
ACCACAGAACTGAAGGTT,remaining target (mRNA or protein) (fraction of control),≥ 1
ACCAGCCCCGAGCGTTTG,remaining target (mRNA or protein) (fraction of control),0.74
ACGTAGCCCTCCTCGGTG,remaining target (mRNA or protein) (fraction of control),≥ 1
ACTGCCTTCTCTGCCCACTT,remaining target (mRNA or protein) (fraction of control),0.41
AGAAAAGGAAATCCCAAA,remaining target (mRNA or protein) (fraction of control),≥ 1
AGAGGCAGAGAAGAGAGC,remaining target (mRNA or protein) (fraction of control),0.93
AGCCAAATGGGAACTCACAG,remaining target (mRNA or protein) (fraction of control),0.74
AGCGCCACACGCGACAGTAA,remaining target (mRNA or protein) (fraction of control),0.56
AGCTCCCTTCTTACTCCC,remaining target (mRNA or protein) (fraction of control),0.69
AGCTCGCGCGAACCCCTA,remaining target (mRNA or protein) (fraction of control),≥ 1
AGGAGGCAGTACTGGAGTCT,remaining target (mRNA or protein) (fraction of control),0.7
AGGCTGCTGGAAAGAGTCAG,remaining target (mRNA or protein) (fraction of control),0.53
AGGGAATAAATACAAAAG,remaining target (mRNA or protein) (fraction of control),≥ 1
AGGGAGGCTGCCTTTTCC,remaining target (mRNA or protein) (fraction of control),0.63
AGGTAGTACACGGCTGAA,remaining target (mRNA or protein) (fraction of control),0.28
AGGTGACACGCCCGGAGA,remaining target (mRNA or protein) (fraction of control),≥ 1
AGTAGGTTTTGGTGGTTT,remaining target (mRNA or protein) (fraction of control),≥ 1
AGTGCATAAGAGGCCACAGC,remaining target (mRNA or protein) (fraction of control),0.56
ATCAGACTGGAGAGGAGC,remaining target (mRNA or protein) (fraction of control),0.73
ATCCCCTGATTTCTTCAC,remaining target (mRNA or protein) (fraction of control),0.53
ATCCGCAGGTTGGTTTTC,remaining target (mRNA or protein) (fraction of control),≥ 1
ATCCTTTGTATTTCTTTC,remaining target (mRNA or protein) (fraction of control),0.85
ATCGTGCGCCCTTCTTGC,remaining target (mRNA or protein) (fraction of control),≥ 1
ATCTTCTTCTCTTTCCTT,remaining target (mRNA or protein) (fraction of control),≥ 1
ATTCAGCATTTTGTAAGG,remaining target (mRNA or protein) (fraction of control),0.99
ATTCTCCCAAAGCGTCCC,remaining target (mRNA or protein) (fraction of control),0.81
ATTGGTCTCTCGTCTTTC,remaining target (mRNA or protein) (fraction of control),≥ 1
ATTTCACTGTAAACGGCT,remaining target (mRNA or protein) (fraction of control),0.81
ATTTCCTGGGATGTGCGG,remaining target (mRNA or protein) (fraction of control),0.48
ATTTCTCTCGTCCGCAAA,remaining target (mRNA or protein) (fraction of control),0.34
CAAAACCTAAATCCCTGG,remaining target (mRNA or protein) (fraction of control),≥ 1
CAAAGCGCTTAACTACAT,remaining target (mRNA or protein) (fraction of control),≥ 1
CACCCTGGCATCCCAAAT,remaining target (mRNA or protein) (fraction of control),0.13
CACCGATGCAGAGGTCGC,remaining target (mRNA or protein) (fraction of control),0.87
CACCTGCAGCCGCCCGTCCA,remaining target (mRNA or protein) (fraction of control),0.55
CACTCTCGGGCAGCCAGC,remaining target (mRNA or protein) (fraction of control),0.91
CAGCACCCCAACCCTTAACA,remaining target (mRNA or protein) (fraction of control),0.47
CAGCGAGTACGTGACGGT,remaining target (mRNA or protein) (fraction of control),0.93
CAGGTAGATGAGGGCGAT,remaining target (mRNA or protein) (fraction of control),0.74
CATAAGAGGCCACAGCAGGC,remaining target (mRNA or protein) (fraction of control),0.41
CCAAAGAGCTGCTGGGAA,remaining target (mRNA or protein) (fraction of control),≥ 1
CCAACAAAACAGTCCAAA,remaining target (mRNA or protein) (fraction of control),0.94
CCACCACTACAGAGCAGG,remaining target (mRNA or protein) (fraction of control),≥ 1
CCACCGCCGCCGCCGCTG,remaining target (mRNA or protein) (fraction of control),0.62
CCACTAGAGTGCGCCAGA,remaining target (mRNA or protein) (fraction of control),≥ 1
CCACTCCCACCTCCCACC,remaining target (mRNA or protein) (fraction of control),≥ 1
CCAGGCTAAACCAGGCTG,remaining target (mRNA or protein) (fraction of control),0.43
CCATCTATGAGCACACTTCG,remaining target (mRNA or protein) (fraction of control),0.33
CCATGGTGCGGTGGCCTC,remaining target (mRNA or protein) (fraction of control),0.94
CCCAGGCGGAGGTCGGCG,remaining target (mRNA or protein) (fraction of control),≥ 1
CCCCACGCTGCCCTCGGA,remaining target (mRNA or protein) (fraction of control),0.8
CCCCTCCACAAAAGTGCC,remaining target (mRNA or protein) (fraction of control),0.78
CCCGCACGTCCTTGAAGA,remaining target (mRNA or protein) (fraction of control),0.27
CCCGGGCAGCTGAGAGCCCT,remaining target (mRNA or protein) (fraction of control),0.72
CCCTAGTCCACAGGTTCC,remaining target (mRNA or protein) (fraction of control),≥ 1
CCGCCAGAAAGACCCCAC,remaining target (mRNA or protein) (fraction of control),≥ 1
CCGCTCTTGGGTCTGGCA,remaining target (mRNA or protein) (fraction of control),0.29
CCGTGGATGATCCGCATC,remaining target (mRNA or protein) (fraction of control),≥ 1
CCTAGCAGTCTCTTCACTGC,remaining target (mRNA or protein) (fraction of control),0.74
CCTCCACAGCCACTGCAT,remaining target (mRNA or protein) (fraction of control),0.97
CCTCCGCCCTCTCTTGCC,remaining target (mRNA or protein) (fraction of control),0.8
CCTGTTTACTGCTCTCCC,remaining target (mRNA or protein) (fraction of control),0.8
CCTTCAAAAGTTGTGCGG,remaining target (mRNA or protein) (fraction of control),≥ 1
CCTTCAGCAAAACAAAAC,remaining target (mRNA or protein) (fraction of control),0.76
CCTTGAAGACCTTGCGGA,remaining target (mRNA or protein) (fraction of control),0.14
CGCACAGCCCTTCACGGCAA,remaining target (mRNA or protein) (fraction of control),0.32
CGCATGGACACGAAGATG,remaining target (mRNA or protein) (fraction of control),≥ 1
CGCCCGCCGGTGCCGCCT,remaining target (mRNA or protein) (fraction of control),0.47
CGCCCGGCGGCTCTTTCT,remaining target (mRNA or protein) (fraction of control),≥ 1
CGCTCCGAAAAGAGACAG,remaining target (mRNA or protein) (fraction of control),0.87
CGGCTGAATCGAGCAGGT,remaining target (mRNA or protein) (fraction of control),0.93
CGTCGGGCTCCTTGCTGA,remaining target (mRNA or protein) (fraction of control),≥ 1
CGTGTTGATAGTTGCAGTTC,remaining target (mRNA or protein) (fraction of control),≥ 1
CTACAGGTTGGCCACTCTGG,remaining target (mRNA or protein) (fraction of control),0.33
CTATGGAAATGCAGCTTAAG,remaining target (mRNA or protein) (fraction of control),0.87
CTCATAGCAGGCCCGGAT,remaining target (mRNA or protein) (fraction of control),0.44
CTCATCCGGATAGTACACAT,remaining target (mRNA or protein) (fraction of control),0.64
CTCCAGGATGTCGGTTTT,remaining target (mRNA or protein) (fraction of control),0.77
CTCCGGCGCGCACGGGAACC,remaining target (mRNA or protein) (fraction of control),0.55
CTCGATCGCTCCTCGTGC,remaining target (mRNA or protein) (fraction of control),≥ 1
CTCGTAACAAACTGGTCGAA,remaining target (mRNA or protein) (fraction of control),0.83
CTGAAAGTGACAGTGTTT,remaining target (mRNA or protein) (fraction of control),0.79
CTGCCTCTCTCTCCTCCG,remaining target (mRNA or protein) (fraction of control),≥ 1
CTGCTGTATCATTTTCTT,remaining target (mRNA or protein) (fraction of control),≥ 1
CTGCTTCTTCTGCTCCAA,remaining target (mRNA or protein) (fraction of control),0.57
CTTAAGACATGACTGTTAAG,remaining target (mRNA or protein) (fraction of control),0.89
CTTCTTGCTGCCCTCGGG,remaining target (mRNA or protein) (fraction of control),≥ 1
CTTTACTTCGCCGTCCAC,remaining target (mRNA or protein) (fraction of control),0.59
CTTTCAAAGGAGGGAAAC,remaining target (mRNA or protein) (fraction of control),≥ 1
CTTTGTTTCGGTTGCTGC,remaining target (mRNA or protein) (fraction of control),0.64
GACGTGCCTTTCTGCTAC,remaining target (mRNA or protein) (fraction of control),0.72
GACTTCCTTGCCTGAAAC,remaining target (mRNA or protein) (fraction of control),≥ 1
GAGAGATGCCCACCCACC,remaining target (mRNA or protein) (fraction of control),≥ 1
GAGGCGCTGCGGAACTTGGC,remaining target (mRNA or protein) (fraction of control),0.5
GAGTTGGTAGCCTCCGTT,remaining target (mRNA or protein) (fraction of control),≥ 1
GATCTTGCAGACGGTAGCTG,remaining target (mRNA or protein) (fraction of control),0.3
GATGAACCTCTTGGCTGC,remaining target (mRNA or protein) (fraction of control),≥ 1
GATGACGGATGTGCTTTT,remaining target (mRNA or protein) (fraction of control),0.74
GATGCGCTCCAGGTGGGA,remaining target (mRNA or protein) (fraction of control),0.58
GATGGGGGTGGTGGAGTGCA,remaining target (mRNA or protein) (fraction of control),0.75
GCACAGCCTGTCTTCAAA,remaining target (mRNA or protein) (fraction of control),≥ 1
GCAGAGCCGGCTGAAGTG,remaining target (mRNA or protein) (fraction of control),0.96
GCATCTGCTTGATGAAGG,remaining target (mRNA or protein) (fraction of control),≥ 1
GCCCGCACGGAGCCCTGC,remaining target (mRNA or protein) (fraction of control),0.81
GCCCTTTGCTTTCCAGAG,remaining target (mRNA or protein) (fraction of control),≥ 1
GCGCGTCCGGTGCTCCCA,remaining target (mRNA or protein) (fraction of control),0.75
GCTCCAGCAGCAGCAGCC,remaining target (mRNA or protein) (fraction of control),0.94
GCTCCCATCCTCGTCGCC,remaining target (mRNA or protein) (fraction of control),≥ 1
GCTGTGTCTCTGGGCATC,remaining target (mRNA or protein) (fraction of control),≥ 1
GCTTCCTGTCCATCACTG,remaining target (mRNA or protein) (fraction of control),0.71
GCTTGAAGAAATGTTTTA,remaining target (mRNA or protein) (fraction of control),≥ 1
GCTTGAGTGCTGGGAACA,remaining target (mRNA or protein) (fraction of control),≥ 1
GGAAACTGAGTCAAGCAA,remaining target (mRNA or protein) (fraction of control),0.62
GGAGTGCATAAGAGGCCACA,remaining target (mRNA or protein) (fraction of control),0.56
GGATCCTGTTGATCTCCT,remaining target (mRNA or protein) (fraction of control),≥ 1
GGCAAGGCTTGAGTGCTG,remaining target (mRNA or protein) (fraction of control),0.42
GGCGAAGCTGATGCGGAC,remaining target (mRNA or protein) (fraction of control),≥ 1
GGCGGCCTTCTCATCCTC,remaining target (mRNA or protein) (fraction of control),0.96
GGCTCAGAAGGACTTCCTGG,remaining target (mRNA or protein) (fraction of control),0.65
GGCTGCGGAGCACGTCCT,remaining target (mRNA or protein) (fraction of control),0.54
GGCTGCTGAGAATCTGAA,remaining target (mRNA or protein) (fraction of control),0.78
GGGAGTTGACGAAGATGG,remaining target (mRNA or protein) (fraction of control),0.96
GGGCCCAAAAGCAGCAGC,remaining target (mRNA or protein) (fraction of control),0.89
GGGGTGGTGGAGTGCATAAG,remaining target (mRNA or protein) (fraction of control),0.9
